According to patent US20250011285A1, “CYP11A1 INHIBITORS” (ORION CORPORATION, priority 2021, published 2025):

Each compound was assayed against T1, CYP11A1 (Homo sapiens, UniProt P05108) (assay: CYP11A1 inhibition, isocaproic acid release assay (IARA) in H295R cells). Conditions: human H295R adrenocortical carcinoma cells treated three days, 3 nM [24,25-3H]-labelled cholesterol, 1% DMSO; read-out: IC50 on CYP11A1 inhibition (Group).
T1 construct: human H295R adrenocortical carcinoma cell line was used as source of enzyme; endogenous in cells; host or cells: H295R human adrenocortical carcinoma cells
T1 sequence (P05108 40-521): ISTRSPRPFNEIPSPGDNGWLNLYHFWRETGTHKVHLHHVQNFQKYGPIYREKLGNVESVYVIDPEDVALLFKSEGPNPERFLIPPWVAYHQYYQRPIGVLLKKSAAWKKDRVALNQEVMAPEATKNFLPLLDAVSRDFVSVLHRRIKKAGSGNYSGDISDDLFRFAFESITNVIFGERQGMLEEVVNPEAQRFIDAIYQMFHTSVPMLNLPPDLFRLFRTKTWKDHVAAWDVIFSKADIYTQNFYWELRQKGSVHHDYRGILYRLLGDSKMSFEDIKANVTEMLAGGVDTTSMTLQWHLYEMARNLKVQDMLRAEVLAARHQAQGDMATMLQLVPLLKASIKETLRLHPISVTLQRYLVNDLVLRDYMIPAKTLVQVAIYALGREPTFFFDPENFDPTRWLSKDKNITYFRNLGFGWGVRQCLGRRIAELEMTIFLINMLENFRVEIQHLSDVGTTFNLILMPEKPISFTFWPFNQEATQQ
Format: cell-based
Experimental: The ability of the test compounds to inhibit conversion of cholesterol to pregnenolone and isocaproic acid was measured by modification of isocaproic acid release assay (IARA) described by Ruangwises et al. (Biology of Reproduction 1991; 45(1):143-50) except that human H295R adrenocortical carcinoma cell line was used as source of enzyme and extraction was done with dextran-coated charcoal suspension (Isomaa, V. et al., Endocrinology 1982; 111(3):833-843). […] To determine the half maximal inhibitory concentration (IC50) of the test compounds on CYP11A1 inhibition, the cells were treated for three days with increasing concentrations of the test compounds in the presence of 3 nM [24,25-3H]-labelled cholesterol (American Radiolabelled Chemicals).
The final DMSO concentration was 1%. Cell culture medium was extracted with dextran-coated charcoal suspension and the radiolabelled isocaproic acid was determined by mixing 100 μl of supernatant fraction in 200 μl of scintillation fluid (OptiPhase SuperMix, Perkin Elmer). Radioactivity was measured using a Microbeta scintillation counter (1450 MicroBeta Trilux, Wallac). All the test compounds were studied at 10 concentrations in duplicates.

`CN(C)C(=O)c1ccc(COc2ccc(CN3Cc4ccccc4C3)cc2OCC(F)(F)F)cc1` [Compound 11, 4-((4-(Isoindolin-2-ylmethyl)-2-(2,2,2-trifluoroethoxy)phenoxy)methyl)-N,N-dimethylbenzamide] and `CN(C)C(=O)c1ccc(COc2ccc(CN3Cc4ccccc4C3)cc2Cl)cc1` [Compound 4, 4-((2-Chloro-4-(isoindolin-2-ylmethyl)phenoxy)methyl)-N,N-dimethyl-benzamide] fall in the same range of IC50: 151 to 350 nM for the first, 151 to 350 nM for the second.

Compared with `COc1cc(CN2Cc3ccc(S(C)(=O)=O)cc3C2)ccc1OCc1ccc(C(=O)N(C)C)cc1` [Compound 32, 4-((2-Methoxy-4-((5-(methylsulfonyl)isoindolin-2-yl)methyl)phenoxy)methyl)-N,N-dimethylbenzamide], `COc1cc(CN2Cc3ccccc3C2)ccc1OCc1ccc(S(C)(=O)=O)cc1` [Compound 12, 2-(3-Methoxy-4-((4-(methylsulfonyl)benzyl)oxy)benzyl)isoindoline] is lower in IC50: 351 to 1500 nM for the first, under 150 nM for the second. The second is the more potent here.

`COCc1cc(CN2Cc3ccccc3C2)ccc1OCc1ccc(C(=O)N(C)C)cc1` [Compound 10, 4-((4-(Isoindolin-2-ylmethyl)-2-(methoxymethyl)phenoxy)methyl)-N,N-di-methylbenzamide] and `CN(C)C(=O)c1ccc(COc2ccc(CN3Cc4ccccc4C3)cc2O)cc1` [Compound 5, 4-((2-Hydroxy-4-(isoindolin-2-ylmethyl)phenoxy)methyl)-N,N-dimethyl-benzamide] fall in the same range of IC50: 151 to 350 nM for the first, 151 to 350 nM for the second.

First: COCc1cc(CN2Cc3ccccc3C2)ccc1OCC1CCN(S(C)(=O)=O)CC1 [Compound 22, 2-(3-(Methoxymethyl)-4-((1-(methylsulfonyl)piperidin-4-yl)methoxy)benzyl)-isoindoline]
Second: COCCc1cc(CN2Cc3ccccc3C2)ccc1OCC1CCN(S(C)(=O)=O)CC1 [Compound 37, 2-(3-(2-Methoxyethyl)-4-((1-(methylsulfonyl)piperidin-4-yl)methoxy)benzyl)-isoindoline]
The IC50 of the first is lower: under 150 nM for the first, 151 to 350 nM for the second. The first is the more potent here.

First: CC(=O)c1cc(CN2Cc3ccccc3C2)ccc1OCC1CCC(S(C)(=O)=O)CC1 (stereo not shown) [Compound 50, 1-(5-(Isoindolin-2-ylmethyl)-2-((4-(methylsulfonyl)cyclohexyl)methoxy)-phenyl)ethan-1-one]
Second: CN(C)C(=O)c1cc(CN2Cc3ccccc3C2)ccc1OCc1ccc(S(C)(=O)=O)cc1 [Compound 17, 5-(Isoindolin-2-ylmethyl)-N,N-dimethyl-2-((4-(methylsulfonyl)benzyl)oxy)-benzamide]
The IC50 of the first is lower: 151 to 350 nM for the first, 351 to 1500 nM for the second. The first is the more potent here.

`CN(C)C(=O)c1ccc(COc2ccc(CN3Cc4ccccc4C3)c3cccnc23)cc1` [Compound 41, 4-(((5-(Isoindolin-2-ylmethyl)quinolin-8-yl)oxy)methyl)-N,N-dimethyl-benzamide] and `CN(C)C(=O)c1ccc(COc2cc(F)c(CN3Cc4ccccc4C3)cc2F)cc1` [Compound 26, 4-((2,5-Difluoro-4-(isoindolin-2-ylmethyl)phenoxy)methyl)-N,N-dimethyl-benzamide] cannot be ordered by IC50: under 150 nM for the first, under 150 nM for the second.

Compared with `CS(=O)(=O)c1ccc(COc2ccc(CN3Cc4ccccc4C3)cc2C#N)cc1` [Compound 16, 5-(Isoindolin-2-ylmethyl)-2-((4-(methylsulfonyl)benzyl)oxy)benzonitrile], `COCCN(C)C(=O)c1ccc(COc2ccc(CN3Cc4ccccc4C3)cc2OC)cc1` [Compound 35, 4-((4-(Isoindolin-2-ylmethyl)-2-methoxyphenoxy)methyl)-N-(2-methoxyethyl)-N-methylbenzamide] is lower in IC50: 151 to 350 nM for the first, under 150 nM for the second.

Compared with `CN(C)C(=O)c1ccc(COc2cc(F)c(CN3Cc4ccccc4C3)c(F)c2)cc1` [Compound 25, 4-((3,5-Difluoro-4-(isoindolin-2-ylmethyl)phenoxy)methyl)-N,N-dimethyl-benzamide], `CN(C)C(=O)c1ccc(COc2ccc(CN3Cc4ccccc4C3=O)cc2OC(F)(F)F)cc1` [Compound 30, N,N-Dimethyl-4-((4-((1-oxoisoindolin-2-yl)methyl)-2-(trifluoromethoxy)-phenoxy)methyl)benzamide] is higher in IC50: 151 to 350 nM for the first, 351 to 1500 nM for the second.
